Reference: patent publication US20250228901A1, “COMPOSITION FOR PREVENTING, ALLEVIATING OR TREATING INFLAMMATORY SKIN DISEASES, COMPRISING CUTIBACTERIUM SP. STRAIN” (CJ Bioscience, Inc., priority 2021, published 2025)

What was measured:
[1] = tested on: mice in which rosacea is induced; test: Rosacea animal model induced by LL37 peptide; assay type: in vivo, BALB/c mice; details: for Dermal inflammation (histopathological evaluation score) / Epithelial hyperplasia (histopathological evaluation score): H&E staining of LL37-administered skin, culture products 150 μl i.p. x3, doxycycline 1 mg/kg x3, LL37 = rosacea induction only; for Total (histopathological evaluation score): sum of epithelial hyperplasia and dermal inflammation scores
Procedure: For the present animal effectiveness test, 32 5-week-old female BALB/c mice were purchased from Orient Bio company, and brought into a breeding room with a 12-hour artificial photoperiod, and acclimatized for one week, and then used in the experiment.
To make a rosacea animal model, hair on the mice's back area was removed using a depilator and hair removal cream. In 24 hours after depilation, to induce rosacea lesions, LL37 peptide (Peptron, Co., Ltd) of 320 μM was under intradermal injection using an insulin syringe by 50 μl. […] Doxycycline, which is one of conventional rosacea therapies, was peritoneally administered by 1 mg/kg once a day, for 3 days (total 3 times).
After 24 hours of the last strain culture product administration, the size (area) of erythema was measured using a caliper, and the animals were euthanized using CO2 gas, and then the lesion area was taken as a photograph and the degree of the erythema was observed by naked eyes and the tissue photographs and the area of the inflammation area were shown in FIG. 14a and FIG. 14b as graphs.

Raw264.7 macrophages = test: Inflammation regulation by living cells co-cultured with Raw264.7 macrophages, IL-6 and IL-10 ELISA; assay type: cell-based; details: living cells co-cultured 1:1 with macrophages, 24 hours; compared to the B. fragilis strain
Procedure: The secured living cells and immunocytes (Raw264.7 macrophages) were co-cultured at the same ratio (1:1) of 5×10^4/well, respectively, in a 96 well plate for 24 hours, and then the inflammation regulation efficacy of the strains was confirmed. As a control group, a B. fragilis strain known as an inflammation alleviating strain was used. The secreted amounts of the inflammatory cytokine (IL-6) and anti-inflammatory cytokine (IL-10) secreted from the macrophages were measured by ELISA, and then values thereof were calculated at a ratio of IL-10/IL-6 and they were shown in FIG. 11.

Row | Compound | Dermal inflammation (histopathological evaluation score) [1] | Epithelial hyperplasia (histopathological evaluation score) [1] | Total (histopathological evaluation score) [1] | secreted amount of the anti-inflammatory cytokine (IL-10) (Raw264.7 macrophages) | secreted amount of the inflammatory cytokine (IL-6) (Raw264.7 macrophages)
1 | C[C@H]1c2cccc(O)c2C(=O)C2=C(O)[C@]3(O)C(=O)C(C(N)=O)=C(O)[C@@H](N(C)C)[C@@H]3[C@@H](O)[C@@H]21 [doxycycline] | 2.4 | 1.2 | 3.6 |  | 
2 | Cutibacterium acnes CJRS-10651 |  |  |  | promoted | reduced
3 | Cutibacterium acnes CJRS-10652 |  |  |  | promoted | reduced
4 | Cutibacterium acnes CJRS-10653 |  |  |  | promoted | reduced
5 | Cutibacterium acnes CJRS-10654 |  |  |  | promoted | reduced
6 | Cutibacterium acnes CJRS-10655 |  |  |  | promoted | reduced
7 | Cutibacterium acnes CJRS-10656 |  |  |  | promoted | reduced
8 | LL37 | 2.5 | 2.75 | 5.25 |  | 
